{"source": "paper PMC12639566", "about": "“Identification of antimalarial drugs and bradykinin as ligands of the Plasmodium membrane protein PfSR10” (iScience, 2025)", "key": {"[1]": {"target": "T1, PfSR10 (Plasmodium falciparum, UniProt Q8I5P8)", "T1 sequence (Q8I5P8 entry or part of it)": "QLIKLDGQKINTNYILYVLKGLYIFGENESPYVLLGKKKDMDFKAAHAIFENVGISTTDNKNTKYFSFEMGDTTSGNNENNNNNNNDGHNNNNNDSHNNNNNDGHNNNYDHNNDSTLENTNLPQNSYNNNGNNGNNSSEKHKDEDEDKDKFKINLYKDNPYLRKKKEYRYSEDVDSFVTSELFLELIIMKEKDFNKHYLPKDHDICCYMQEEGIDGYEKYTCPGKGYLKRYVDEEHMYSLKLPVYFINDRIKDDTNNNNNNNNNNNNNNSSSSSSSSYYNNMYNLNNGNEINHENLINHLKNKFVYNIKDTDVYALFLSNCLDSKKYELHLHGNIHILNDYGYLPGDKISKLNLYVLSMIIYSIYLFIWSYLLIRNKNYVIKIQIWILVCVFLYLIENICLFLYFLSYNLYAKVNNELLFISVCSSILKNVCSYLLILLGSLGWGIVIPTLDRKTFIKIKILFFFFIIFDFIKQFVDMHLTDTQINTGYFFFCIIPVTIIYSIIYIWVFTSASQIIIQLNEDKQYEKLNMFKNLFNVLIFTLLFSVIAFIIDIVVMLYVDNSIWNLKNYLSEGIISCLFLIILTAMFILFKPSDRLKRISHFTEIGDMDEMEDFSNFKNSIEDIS", "test": "GloSensor-cAMP assay, inhibition of forskolin-induced cAMP in PfSR10-overexpressing HEK293 cells", "assay_type": "cell-based", "details": "for Fsk-induced cAMP level elevation (in words): PfSR10-overexpressing HEK293 cells, concentration-dependent", "procedure": "(§1) To examine the constitutive activity of PfSR10, we transfected HEK293 cells with different concentrations of the receptor, including PfSR10, ADGRG2, ADGRG3. For measuring the anti-malarial drugs, bradykinin or des-Arg9-bradykinin-induced inhibition of forskolin-stimulated cAMP level in HEK293 cells or COS-7 cells, the receptor encoding plasmid (PfSR10 or its mutants) or empty plasmid (pcDNA3.1) was co-transfected with the GloSensor plasmid and incubated in an incubator at 37°C with 5% CO2 for 24 h. The transfected cells were then inoculated on 96-well plates (at a density of 4 × 10^4 / well) and incubated in incubators under the same conditions for another 24 hours. Cells were precultured with serum-free medium (Gibco) containing 5% DILUTED GloSensor™cAMP reagent Reserve solution (Progema) for 2 h. The base cAMP signal was directly measured using a multimode tablet reader (PerkinElmer Envision). At the same time, the cAMP signal induced by DHA, PIP-TT, PQ, CQ bradykinin or des-Arg9-bradykinin was detected after adding agonists into the corresponding Wells. Finally, the s-shaped dose response function in GraphPad Prism 7.0 was used to analyze the data."}, "[2]": {"target": "PbSR10 (Plasmodium berghei, UniProt A0A509AUP3)", "sequence (A0A509AUP3 entry or part of it)": "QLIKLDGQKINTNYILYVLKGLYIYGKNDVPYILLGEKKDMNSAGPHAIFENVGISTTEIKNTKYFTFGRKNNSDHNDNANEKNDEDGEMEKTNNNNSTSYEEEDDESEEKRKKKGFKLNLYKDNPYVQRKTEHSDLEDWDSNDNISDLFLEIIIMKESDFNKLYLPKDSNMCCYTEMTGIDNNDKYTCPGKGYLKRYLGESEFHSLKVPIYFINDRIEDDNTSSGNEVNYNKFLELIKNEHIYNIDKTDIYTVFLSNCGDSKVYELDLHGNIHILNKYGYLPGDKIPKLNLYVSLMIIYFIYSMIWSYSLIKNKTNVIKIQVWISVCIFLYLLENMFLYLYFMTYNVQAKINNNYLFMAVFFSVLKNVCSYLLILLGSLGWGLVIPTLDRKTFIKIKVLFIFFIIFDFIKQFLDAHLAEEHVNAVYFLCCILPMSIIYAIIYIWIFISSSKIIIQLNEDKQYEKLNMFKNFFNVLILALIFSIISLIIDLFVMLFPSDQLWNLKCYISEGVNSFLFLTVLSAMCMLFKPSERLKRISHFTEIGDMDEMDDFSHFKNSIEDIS", "test": "Gi protein trimer dissociation assay in HEK293 cells overexpressing PbSR10", "assay_type": "cell-based"}, "[3]": {"target": "T1, PfSR10", "test": "FlAsH-BRET assay of PfSR10 extracellular conformational changes", "assay_type": "cell-based", "procedure": "To characterize the binding properties of different ligands (CQ, DHA, PIP-TT, PQ, bradykinin or des-Arg9-bradykinin) to PfSR10, a FlAsH BRET assay was performed as previously described.[29]^,[32]^,[49] We seeded HEK293 cells or COS-7 cells in 6-well plate were transfected with PfSR10 FlAsH BRET sensors (S1 to S6 as indicated in Figure 4B) and incubated for 48 h at 37°C in 5% CO2. The overexpressed PfSR10 sensors cells were washed with FlAsH BRET buffer (25 mM HEPES, 1 mM CaCl2, 140 mM NaCl, 2.7 mM KCl, 0.9 mM MgCl2, 0.37 mM NaH2PO4, 5.5 mM D-glucose, 12 mM NaHCO3) and incubated with 2.5 μM FlLAsH EDT2 (pre-diluted in FLAsH BRET buffer) for 40min at 37°C in 5% CO2. The cells were washed twice, resuspended with FlAsH BRET buffer, and seeded into a 96-well plate at a density of 5x10^4 per well. After adding increasing concentrations of ligand (CQ, DHA, PIP-TT, PQ, bradykinin or des-Arg9-bradykinin) together with luciferase substrate coelenterazine-h (5 μM), the BRET signals between Nluc (440-480 nm) and FlAsH fluorescent moiety (525-585 nm) emissions were examined by a Mithras LB 940 Multimode Microplate Reader."}, "[4]": {"target": "T1, PfSR10", "test": "Gq-Gγ dissociation BRET assay in PfSR10-overexpressing HEK293 cells", "assay_type": "cell-based", "description": "(§2) To characterize the G protein signalling properties of PfSR10, G protein BRET probes were generated according to previous publication.[50] The Gqo BRET probes were generated by replacing the six amino acids of the C- terminus of Gq -RlucII with those from GoA1, creating a chimeric Gqo-RlucII subunit.[51] HEK293 cells or COS-7 cells were co-transfected with PfSR10 and various G protein probes (Gi, Gq and Gqo). Forty-eight hours post-transfection, cells were washed twice with HBSS, resuspended with HBSS buffer, and seeded into a 96-well plate at a density of 5x10^4 per well. After adding increasing concentrations of ligand (CQ, DHA, PIP-TT, PQ, Bradykinin, des-Arg9-bradykinin, bradykinin-Arg-FITC, FITC-bradykinin) together with luciferase substrate coelenterazine 400a (5 μM, Cayman), the BRET signals between […] (440-480 nm) and GFP2 (510 nm) emissions were examined by a Mithras LB 940 Multimode Microplate Reader (Berthold Technologies). The BRET signal was calculated as the ratio of the GFP2 emission to Nluc emission."}, "[5]": {"target": "T1, PfSR10", "test": "Gi1-Gγ dissociation BRET assay in PfSR10-overexpressing HEK293 cells", "assay_type": "cell-based", "details": "for Gi1 coupling with PfSR10 (in words): G protein dissociation assay", "description": "as §2"}, "[6]": {"target": "PySR10 (Plasmodium yoelii, UniProt V7PQD6)", "sequence (V7PQD6 entry or part of it)": "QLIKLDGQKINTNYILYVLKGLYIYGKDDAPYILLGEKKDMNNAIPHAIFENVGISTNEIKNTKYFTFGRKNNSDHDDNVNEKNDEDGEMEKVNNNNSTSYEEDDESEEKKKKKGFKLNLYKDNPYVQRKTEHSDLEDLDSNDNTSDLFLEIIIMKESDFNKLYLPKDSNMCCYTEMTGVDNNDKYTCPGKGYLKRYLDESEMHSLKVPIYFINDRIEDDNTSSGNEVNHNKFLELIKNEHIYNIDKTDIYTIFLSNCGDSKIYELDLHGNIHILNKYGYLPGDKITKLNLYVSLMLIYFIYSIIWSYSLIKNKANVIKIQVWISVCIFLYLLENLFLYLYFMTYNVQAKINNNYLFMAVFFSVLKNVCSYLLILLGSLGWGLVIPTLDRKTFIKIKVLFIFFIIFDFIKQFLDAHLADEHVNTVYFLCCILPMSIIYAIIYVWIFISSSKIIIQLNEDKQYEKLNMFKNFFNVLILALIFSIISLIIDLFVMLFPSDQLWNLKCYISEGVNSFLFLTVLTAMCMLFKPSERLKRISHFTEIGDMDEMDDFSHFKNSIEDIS", "test": "Gi dissociation assay in HEK293 cells overexpressing PySR10", "assay_type": "cell-based", "details": "read-out: Gi activity EC50 downstream of PySR10"}, "[7]": {"target": "PcSR10 (Plasmodium chabaudi, UniProt A0A4V0KCI5)", "sequence (A0A4V0KCI5 entry or part of it)": "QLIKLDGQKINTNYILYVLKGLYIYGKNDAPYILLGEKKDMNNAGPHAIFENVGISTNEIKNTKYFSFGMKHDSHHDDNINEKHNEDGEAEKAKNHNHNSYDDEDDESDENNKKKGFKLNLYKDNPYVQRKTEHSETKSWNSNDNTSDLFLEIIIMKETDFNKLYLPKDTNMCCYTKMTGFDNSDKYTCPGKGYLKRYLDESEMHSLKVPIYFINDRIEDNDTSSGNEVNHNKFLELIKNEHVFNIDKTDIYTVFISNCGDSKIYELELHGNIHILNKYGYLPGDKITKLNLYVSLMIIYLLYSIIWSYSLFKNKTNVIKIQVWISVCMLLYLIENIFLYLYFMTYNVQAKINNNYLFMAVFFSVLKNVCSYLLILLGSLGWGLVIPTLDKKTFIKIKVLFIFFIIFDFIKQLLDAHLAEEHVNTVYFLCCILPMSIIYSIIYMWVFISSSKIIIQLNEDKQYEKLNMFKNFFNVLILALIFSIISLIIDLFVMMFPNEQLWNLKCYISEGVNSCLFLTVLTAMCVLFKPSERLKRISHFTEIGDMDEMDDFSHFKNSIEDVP", "test": "Gi dissociation assay in HEK293 cells overexpressing PcSR10", "assay_type": "cell-based", "details": "read-out: Gi activity EC50 downstream of PcSR10"}, "[8]": {"target": "T1, PfSR10", "test": "cAMP inhibition in PfSR10-overexpressing COS-7 cells", "assay_type": "cell-based", "details": "read-out: EC50 in COS-7 cell", "procedure": "as §1"}, "[9]": {"target": "PcSR10 (SR10 of Plasmodium chabaudi) (Plasmodium chabaudi)"}, "[10]": {"target": "PySR10 (SR10 of Plasmodium yoelii) (Plasmodium yoelii)"}}, "note": "Peptide text beside a SMILES is read from it."}
{"molecule": "COc1cc(NC(C)CCCN)c2ncccc2c1", "note": "(stereo not shown) [PQ, primaquine diphosphate]", "values": [{"measurement": "EC50", "setting": "[1]", "result": "17.4 ± 4.77", "unit": "nM"}, {"measurement": "cAMP inhibition Emax", "setting": "[1]; HEK293 cells overexpressing PfSR10, mean ± SEM", "result": "1.153 ± 0.06 × 10^3"}, {"measurement": "Gi dissociation downstream of PbSR10", "setting": "[2]", "result": "promoted Gi dissociation"}, {"measurement": "ECL1 movement relative to the PfSR10 N-terminus", "setting": "[3]; concentration-dependent", "result": "inward movement of ECL1 toward the PfSR10 N-terminus"}]}
{"molecule": "N=C(N)NCCC[C@H](NC(=O)[C@H](Cc1ccccc1)NC(=O)[C@@H]1CCCN1C(=O)[C@H](CO)NC(=O)[C@H](Cc1ccccc1)NC(=O)CNC(=O)[C@@H]1CCCN1C(=O)[C@@H]1CCCN1C(=O)[C@@H](N)CCCNC(=N)N)C(=O)O", "note": "[bradykinin] (H-RPPGFSPFR-OH)", "values": [{"measurement": "Gq dissociation signal (in words)", "setting": "[4]; PfSR10-overexpressing cells", "result": "remarkable reduction"}, {"measurement": "Fsk-induced cAMP level elevation (in words)", "setting": "[1]", "result": "significantly inhibited"}, {"measurement": "ECL movements of PfSR10 by FlAsH-BRET sensors (kinin peptides)", "setting": "[3]", "result": "movement of ECL1 and ECL3 toward the N-terminus and separation of the ECL2 region and N-terminus of PfSR10"}, {"measurement": "Gi1 coupling with PfSR10 (in words)", "setting": "[5]", "result": "promoted Gi1 coupling to PfSR10"}]}
{"molecule": "NC(N)=NCCC[C@H](NC(=O)[C@H](Cc1ccccc1)NC(=O)[C@@H]1CCCN1C(=O)[C@H](CO)NC(=O)[C@H](Cc1ccccc1)NC(=O)CNC(=O)[C@@H]1CCCN1C(=O)[C@@H]1CCCN1C(=O)[C@@H](N)CCCN=C(N)N)C(=O)O", "note": "[bradykinin] (H-RPPGFSPFR-OH)", "values": [{"measurement": "EC50", "setting": "[6]", "result": "0.67 ± 0.29", "unit": "nM"}, {"measurement": "EC50", "setting": "[4]", "result": "0.53 ± 0.06", "unit": "nM"}, {"measurement": "EC50", "setting": "[1]", "result": "1.82 ± 0.83", "unit": "nM"}, {"measurement": "EC50", "setting": "[7]", "result": "0.15 ± 0.005", "unit": "nM"}, {"measurement": "EC50", "setting": "[5]", "result": "0.38 ± 0.11", "unit": "nM"}]}
{"molecule": "N=C(N)NCCC[C@H](N)C(=O)N1CCC[C@H]1C(=O)N1CCC[C@H]1C(=O)NCC(=O)N[C@@H](Cc1ccccc1)C(=O)N[C@@H](CO)C(=O)N1CCC[C@H]1C(=O)N[C@@H](Cc1ccccc1)C(=O)O", "note": "[des-Arg9-bradykinin]", "values": [{"measurement": "Fsk-induced cAMP level elevation (in words)", "setting": "[1]", "result": "significantly inhibited"}, {"measurement": "EC50", "setting": "[8]", "result": "0.29 ± 0.08", "unit": "nM"}, {"measurement": "ECL movements of PfSR10 by FlAsH-BRET sensors (kinin peptides)", "setting": "[3]", "result": "movement of ECL1 and ECL3 toward the N-terminus and separation of the ECL2 region and N-terminus of PfSR10"}, {"measurement": "Gi1 coupling with PfSR10 (in words)", "setting": "[5]", "result": "promoted Gi1 coupling to PfSR10"}]}
{"molecule": "RPPGFSPFR", "note": "[bradykinin]", "values": [{"measurement": "EC50 of Gi activity downstream of PcSR10, concentration-dependent", "setting": "[9]", "result": 0.15, "unit": "nM"}, {"measurement": "EC50 of Gi activity downstream of PySR10, concentration-dependent", "setting": "[10]", "result": 0.67, "unit": "nM"}]}
